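Compound exposure: 48 hours, 5 concentrations, 96-well plates. At the TGI there is no net growth.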
How the values were obtained:
Test in all cases: DTP human tumour cell line panel, 48 h
LXFL 529 NSCLC = tested on: LXFL 529 NSCLC
SNB-75 CNS = tested on: SNB-75 CNS
SF-295 CNS = tested on: SF-295 CNS
U251 CNS = tested on: U251 CNS
K-562 leukemia = tested on: K-562 leukemia
TK-10 renal = tested on: TK-10 renal
UACC-62 melanoma = tested on: UACC-62 melanoma
MOLT-4 leukemia = tested on: MOLT-4 leukemia
NCI-H226 lung = tested on: NCI-H226 lung
KM20L2 colon = tested on: KM20L2 colon
CCRF-CEM leukemia = tested on: CCRF-CEM leukemia
SNB-78 CNS = tested on: SNB-78 CNS
SNB-19 CNS = tested on: SNB-19 CNS
NCI-H460 lung = tested on: NCI-H460 lung
MALME-3M melanoma = tested on: MALME-3M melanoma
SF-268 CNS = tested on: SF-268 CNS
HCC-2998 colon = tested on: HCC-2998 colon
OVCAR-4 ovarian = tested on: OVCAR-4 ovarian
M14 melanoma = tested on: M14 melanoma
SK-OV-3 ovarian = tested on: SK-OV-3 ovarian
NCI-H522 lung = tested on: NCI-H522 lung
SK-MEL-2 melanoma = tested on: SK-MEL-2 melanoma
IGROV1 ovarian = tested on: IGROV1 ovarian
HCT-116 colon = tested on: HCT-116 colon
DMS 273 small cell lung = tested on: DMS 273 small cell lung
RPMI-8226 leukemia = tested on: RPMI-8226 leukemia
CAKI-1 renal = tested on: CAKI-1 renal
HT29 colon = tested on: HT29 colon
SW-620 colon = tested on: SW-620 colon
COLO 205 colon = tested on: COLO 205 colon
HL-60(TB) leukemia = tested on: HL-60(TB) leukemia
XF 498 CNS = tested on: XF 498 CNS
SK-MEL-5 melanoma = tested on: SK-MEL-5 melanoma
UACC-257 melanoma = tested on: UACC-257 melanoma
RXF 393 renal = tested on: RXF 393 renal
HOP-62 NSCLC = tested on: HOP-62 NSCLC
HCT-15 colon = tested on: HCT-15 colon
OVCAR-5 ovarian = tested on: OVCAR-5 ovarian
RXF-631 renal = tested on: RXF-631 renal
HOP-92 NSCLC = tested on: HOP-92 NSCLC
SF-539 CNS = tested on: SF-539 CNS
786-0 renal = tested on: 786-0 renal
SK-MEL-28 melanoma = tested on: SK-MEL-28 melanoma
ACHN renal = tested on: ACHN renal
A498 renal = tested on: A498 renal
HOP-18 NSCLC = tested on: HOP-18 NSCLC
OVCAR-3 ovarian = tested on: OVCAR-3 ovarian
EKVX NSCLC = tested on: EKVX NSCLC
UO-31 renal = tested on: UO-31 renal
DLD-1 colon = tested on: DLD-1 colon
A549 NSCLC = tested on: A549 NSCLC
NCI-H23 lung = tested on: NCI-H23 lung
LOX IMVI melanoma = tested on: LOX IMVI melanoma
OVCAR-8 ovarian = tested on: OVCAR-8 ovarian
M19-MEL melanoma = tested on: M19-MEL melanoma
SN12C renal = tested on: SN12C renal
KM12 colon = tested on: KM12 colon

`CC(C)(C)C(=O)C(c1ccc(-c2cscn2)cc1)c1ccc(-c2cscn2)cc1` showed a TGI (LXFL 529 NSCLC) of over 100 µM, a TGI (SNB-75 CNS) of 25.6 µM and a TGI (SF-295 CNS) of 84.5 µM. For the same compound, the TGI (U251 CNS) was over 60.8 µM, the TGI (K-562 leukemia) was over 100 µM and the TGI (TK-10 renal) was 92 µM. For the same compound, the TGI (UACC-62 melanoma) was over 71.4 µM, the TGI (MOLT-4 leukemia) was over 100 µM and the TGI (NCI-H226 lung) was over 78.7 µM. For the same compound, the TGI (KM20L2 colon) was over 100 µM, the TGI (CCRF-CEM leukemia) was over 100 µM and the TGI (SNB-78 CNS) was 78.5 µM. It also gave a TGI (SNB-19 CNS) of over 69.7 µM, a TGI (NCI-H460 lung) of over 100 µM and a TGI (MALME-3M melanoma) of over 100 µM. For the same compound, the TGI (SF-268 CNS) was 97.5 µM, the TGI (HCC-2998 colon) was over 100 µM and the TGI (OVCAR-4 ovarian) was 9.54 µM. The TGI (M14 melanoma) was over 100 µM, the TGI (SK-OV-3 ovarian) was 65.3 µM and the TGI (NCI-H522 lung) was over 100 µM. The TGI (SK-MEL-2 melanoma) was 68.5 µM, the TGI (IGROV1 ovarian) was over 100 µM and the TGI (HCT-116 colon) was over 100 µM. It also gave a TGI (DMS 273 small cell lung) of over 100 µM, a TGI (RPMI-8226 leukemia) of over 100 µM and a TGI (CAKI-1 renal) of over 73.2 µM. The TGI (HT29 colon) was over 100 µM, the TGI (SW-620 colon) was over 100 µM and the TGI (COLO 205 colon) was over 100 µM. It also gave a TGI (HL-60(TB) leukemia) of over 100 µM, a TGI (XF 498 CNS) of 80.5 µM and a TGI (SK-MEL-5 melanoma) of over 100 µM. The TGI (UACC-257 melanoma) was over 100 µM, the TGI (RXF 393 renal) was 54.7 µM and the TGI (HOP-62 NSCLC) was 40.6 µM. It also gave a TGI (HCT-15 colon) of over 100 µM, a TGI (OVCAR-5 ovarian) of over 100 µM and a TGI (RXF-631 renal) of over 100 µM. The TGI (HOP-92 NSCLC) was 30 µM, the TGI (SF-539 CNS) was over 56.3 µM and the TGI (786-0 renal) was 78.7 µM. For the same compound, the TGI (SK-MEL-28 melanoma) was over 100 µM, the TGI (ACHN renal) was over 100 µM and the TGI (A498 renal) was 65.8 µM. For the same compound, the TGI (HOP-18 NSCLC) was over 100 µM, the TGI (OVCAR-3 ovarian) was over 84.7 µM and the TGI (EKVX NSCLC) was over 100 µM. For the same compound, the TGI (UO-31 renal) was over 81.9 µM, the TGI (DLD-1 colon) was over 100 µM and the TGI (A549 NSCLC) was over 100 µM. For the same compound, the TGI (NCI-H23 lung) was over 100 µM, the TGI (LOX IMVI melanoma) was over 100 µM and the TGI (OVCAR-8 ovarian) was over 100 µM. The TGI (M19-MEL melanoma) was over 100 µM, the TGI (SN12C renal) was over 100 µM and the TGI (KM12 colon) was over 100 µM.
